Consider 25 molecules from patent US9315546B2, “Growth hormone secretatogue receptor antagonists and uses thereof” (The Administrators of the Tulane Educational Fund, priority 2010, dated 2016).

Where no end group is shown, it is not given here. [ ]: non-standard residue; d: D form.

This assay concerns the target Ghrelin/GHRP/GHS Receptor (Rattus norvegicus, UniProt O08725). Briefly: GH release from cell culture of pituitary cells. It is filed as cell-based. On the set-up: After dispersion, the cells were collected by centrifugation, wash with DMEM and placed into culture well; endogenous in cells; host or cells: dispersed primary rat pituitary cells, 4 days in culture. Conditions: for Unstimulated Basal GH release: Table 8. As for the experimental part: In vitro GH Release-Female rats of the CD-1 strain were housed in a constant temperature room at 24° C. with 14 h light and 10 h darkness. The rats were fed Purina Rat chow and water at libitum. All studies were started between 0800-1000 hours. Pituitaries of mature female Sprague Dawley rats were rapidly removed after decapitation, neurointermediate lobe discarded and then placed in a pH 7.4 buffer. The pituitaries were cut into ˜3-mm pieces and then transferred to a flask containing HEPS buffer with trypsin and incubated at 37° C. Cells were triturated several times during this period. After dispersion, the cells were collected by centrifugation, wash with DMEM and placed into culture well. Cell cultures were maintained for 4 days at 37° with 8% CO2 added to the incubator atmosphere. After 4 days in culture, cells were washed with lactated Ringer's solution adjusted to pH 7.2-7.4 and then vehicle, peptide alone or peptide plus stimulator was added to media. Incubation time was 60-120 minutes after which media was removed from each well for GH determination. The GH RIA reagents were distributed by the NIH. Control data was collected from cell cultures treated with only the corresponding vehicle in the absence of peptide or stimulator. Control stimulated data was collected from cell cultures treated with stimulator alone in the absence of any peptide.

The mark [1] stands for this setting: Table 10, compound 10 μg/ml + stimulator 1 ng/ml.
The mark [2] stands for this setting: Table 10, compound 30 μg/ml + stimulator 1 ng/ml.
[3] abbreviates: Table 10, compound alone 10 μg/ml.
Setting [4] is: Table 10, compound alone 30 μg/ml.
[5] abbreviates: Table 10, compound 3 μg/ml + stimulator 1 ng/ml.
Where [6] appears, read: Table 10, compound alone 3 μg/ml.
Setting [7] is: Table 11, compound 10 μg/ml + stimulator 1 ng/ml.
[8] abbreviates: Table 11, compound 30 μg/ml + stimulator 1 ng/ml.
Setting [9] is: Table 11, compound alone 10 μg/ml.
[10] abbreviates: Table 11, compound alone 30 μg/ml.

Chain of Ghrelin/GHRP/GHS Receptor (O08725 whole entry): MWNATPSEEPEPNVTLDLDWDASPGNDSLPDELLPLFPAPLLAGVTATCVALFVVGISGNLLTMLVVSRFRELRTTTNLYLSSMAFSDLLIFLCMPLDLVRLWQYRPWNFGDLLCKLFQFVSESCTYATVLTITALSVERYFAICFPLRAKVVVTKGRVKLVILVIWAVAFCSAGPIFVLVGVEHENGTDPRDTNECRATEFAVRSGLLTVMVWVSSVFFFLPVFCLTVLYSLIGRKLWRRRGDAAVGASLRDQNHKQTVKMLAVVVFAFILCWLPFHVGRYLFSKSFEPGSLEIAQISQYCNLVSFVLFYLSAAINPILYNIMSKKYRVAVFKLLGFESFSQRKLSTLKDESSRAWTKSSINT

Take `N[C@H](COCc1ccccc1)C(=O)N1CCN(c2ccccc2)CC1` [6-D Ser(BZL)-N′-phenyl-N-piperazinamide, D Ser(BZL)-N′-phenyl-N-piperazinamide]: the “Stimulated GH release (P + S)” value under setting [1] worked out at 719 ± 26 ng/mL and the “Stimulated GH release (P + S)” value under setting [2] is 435 ± 0 ng/mL. In addition, the “Unstimulated GH release” value runs as follows: under setting [3], 585 ± 10 ng/mL; under setting [4], 368 ± 2 ng/mL.

As to “[dF]W[dF]FM-NH2 [13-DPhe-Trp-DPhe-Phe-Met-NH2]”, the “Unstimulated Basal GH release” value is, setting by setting: (peptide 3 μg/ml) 1146 ± 34 ng/mL; (peptide 10 μg/ml) 1086 ± 32 ng/mL; (peptide 30 μg/ml) 871 ± 89 ng/mL.

On to “Ac-[dK]Y[dW][dW]F-NH2 [9-Ac-DLys-Tyr-DTrp-DTrp-Phe-NH2]”, for which the “Unstimulated Basal GH release” value is, setting by setting: (peptide 3 μg/ml) 105 ± 8 ng/mL; (peptide 10 μg/ml) 950 ± 91 ng/mL; (peptide 30 μg/ml) 782 ± 56 ng/mL; (peptide 100 μg/ml) 756 ± 1 ng/mL.

“2-[acetylester]-3-(p-m-methoxyl phenyl) piperidinamide]-naphthalene carboxamide”: the “Stimulated GH release (P + S)” value under setting [1] stood at 480 ± 9 ng/mL and the “Stimulated GH release (P + S)” value under setting [2] came out at 223 ± 22 ng/mL. Moreover, the “Unstimulated GH release” value under setting [3] amounted to 373 ± 2 ng/mL and the “Unstimulated GH release” value under setting [4] is 176 ± 11 ng/mL.

Regarding “Benzamide-DSerDLysTrp-p-phenylpiperidinamide”, the “Stimulated GH release (P + S)” value reads like this: under setting [5], 432 ± 25 ng/mL; under setting [1], 353 ± 10 ng/mL. Further, the “Unstimulated GH release” value was determined as 393 ± 54 ng/mL under setting [6] and 369 ± 30 ng/mL under setting [3].

In the case of Ac-DβNal-DTrp-NH2 [2-Ac-DβNal-DTrp-NH2], the “Unstimulated Basal GH release” value is, setting by setting: (peptide 3 μg/ml) 1264 ± 2 ng/mL; (peptide 10 μg/ml) 980 ± 72 ng/mL; (peptide 30 μg/ml) 699 ± 7 ng/mL.

As to `COC(=O)c1cc2ccccc2cc1C(=O)Nc1ccc(C)cc1` [2-[methylester]-3-[p-methylphenylamidenaphthalenecarboxylamide], the “Stimulated GH release (P + S)” value amounted to 1149 ± 33 ng/mL under setting [7] and 886 ± 29 ng/mL under setting [8]. In addition, the “Unstimulated GH release” value under setting [9] amounted to 754 ± 32 ng/mL and the “Unstimulated GH release” value under setting [10] came to 498 ± 26 ng/mL.

In the case of “p-phenyl(piperidinamide-DTrpLysSer(BZL)-acetylamide”, the “Stimulated GH release (P + S)” value is, setting by setting: (Table 11, compound 1 μg/ml + stimulator 1 ng/ml) 680 ± 13 ng/mL; (Table 11, compound 3 μg/ml + stimulator 1 ng/ml) 489 ± 41 ng/mL; under setting [7], 245 ± 16 ng/mL.

As to “DAla-DcyclohexylAla-Ala-Ala-Phe-DPhe-Nle-NH2”, the “Unstimulated Basal GH release” value by setting is: (peptide 1 μg/ml) 286 ± 75 ng/mL; (peptide 3 μg/ml) 177 ± 44 ng/mL; (peptide 10 μg/ml) 271 ± 38 ng/mL; (peptide 30 μg/ml) 376 ± 28 ng/mL.

As to `N[C@H](Cc1c[nH]c2ccccc12)C(=O)N1CCC(c2ccccc2)CC1` [1-DTrp-4-phenylpiperdinamide, DTrp-4-phenylpiperdinamide], the “Stimulated GH release (P + S)” value (Table 10, compound 1 μg/ml + stimulator 1 ng/ml) amounted to 1085 ± 1 ng/mL; the “Stimulated GH release (P + S)” value under setting [5] was determined as 917 ± 4 ng/mL; the “Stimulated GH release (P + S)” value under setting [1] is 344 ± 6 ng/mL; the “Stimulated GH release (P + S)” value under setting [2] was 486 ± 29 ng/mL. Also, the “Unstimulated GH release” value is, setting by setting: (Table 10, compound alone 1 μg/ml) 815 ± 26 ng/mL; under setting [6], 390 ± 35 ng/mL; under setting [3], 520 ± 61 ng/mL; under setting [4], 577 ± 24 ng/mL.

Consider `COc1ccccc1C1CCN(C(=O)[C@@H](Cc2c[nH]c3ccccc23)NC(=O)C(C)(C)N)CC1` [αAibDTrp-p-(α-methoxylphenyl) piperidinamide], for which the “Stimulated GH release (P + S)” value runs as follows: under setting [7], 441 ± 21 ng/mL; under setting [8], 384 ± 16 ng/mL. Moreover, the “Unstimulated GH release” value reads like this: under setting [9], 365 ± 2 ng/mL; under setting [10], 375 ± 30 ng/mL.

As to `C=C(C)CON=C(c1ccccc1)c1ccccc1` [5-O-(2-methylallyl) benzophonone oxime, O-(2-methylallyl) benzophonone oxime], the “Stimulated GH release (P + S)” value under setting [1] came out at 1281 ± 58 ng/mL and the “Stimulated GH release (P + S)” value under setting [2] was found to be 699 ± 53 ng/mL. The “Unstimulated GH release” value is, setting by setting: under setting [3], 929 ± 28 ng/mL; under setting [4], 616 ± 23 ng/mL.

For the molecule “Arg-DTrp-Leu-Tyr-Trp-Pro(cyclic Arg-Pro) (WLYWP; HELM PEPTIDE1{R.[dW].L.Y.W.P}$PEPTIDE1,PEPTIDE1,1:R1-6:R2$$$V2.0; SMILES CC(C)C[C@@H]1NC(=O)[C@@H](Cc2c[nH]c3ccccc23)NC(=O)[C@H](CCCNC(=N)N)NC(=O)[C@@H]2CCCN2C(=O)[C@H](Cc2c[nH]c3ccccc23)NC(=O)[C@H](Cc2ccc(O)cc2)NC1=O)”, the “Unstimulated Basal GH release” value came to 1480 ± 19 ng/mL (peptide 3 μg/ml), 802 ± 26 ng/mL (peptide 10 μg/ml), 601 ± 16 ng/mL (peptide 30 μg/ml) and 509 ± 49 ng/mL (peptide 100 μg/ml).

For “Ac-DβNal-PlcLys-ILys-DPhe-NH2 [11-Ac-DβNal-PlcLys-ILys-DPhe-NH2]”, the “Unstimulated Basal GH release” value is 1013 ± 207 ng/mL (peptide 3 μg/ml), 976 ± 13 ng/mL (peptide 10 μg/ml) and 928 ± 16 ng/mL (peptide 30 μg/ml).

Take `CCOC(=O)c1cc2ccccc2cc1C(=O)Nc1cccc(OC)c1` [2-[ethylester-3-m-methoxylphenylamide] naphthalene carboxylamide]: the “Stimulated GH release (P + S)” value came to 670 ± 32 ng/mL under setting [7] and 458 ± 15 ng/mL under setting [8]. The “Unstimulated GH release” value by setting is: under setting [9], 698 ± 18 ng/mL; under setting [10], 552 ± 20 ng/mL.

Turning to “[dF]AF[dF]K-NH2 [7-DPhe-Ala-Phe-DPhe-Lys-NH2]”, the “Unstimulated Basal GH release” value is 267 ± 27 ng/mL (peptide 10 μg/ml), 276 ± 65 ng/mL (peptide 30 μg/ml) and 360 ± 84 ng/mL (peptide 100 μg/ml).

For “αAib-DTrp-DcyclohexylAla-NH2 [3-αAib-DTrp-DcyclohexylAla-NH2]”, the “Unstimulated Basal GH release” value (peptide 1 μg/ml) turned out to be 980 ± 44 ng/mL, the “Unstimulated Basal GH release” value (peptide 3 μg/ml) came to 826 ± 32 ng/mL, the “Unstimulated Basal GH release” value (peptide 10 μg/ml) amounted to 602 ± 53 ng/mL and the “Unstimulated Basal GH release” value (peptide 30 μg/ml) was 492 ± 11 ng/mL.

For “1,3-diaminobutyricamide-DβNal-4-phenylpiperidinamide”, the “Stimulated GH release (P + S)” value is, setting by setting: under setting [7], 644 ± 33 ng/mL; under setting [8], 529 ± 20 ng/mL. In addition, the “Unstimulated GH release” value by setting is: under setting [9], 794 ± 34 ng/mL; under setting [10], 504 ± 20 ng/mL.

For “γAbuDTrp-p-[m-methoxyphenyl] piperidinamide”, the “Stimulated GH release (P + S)” value is 526 ± 27 ng/mL under setting [7] and 428 ± 22 ng/mL under setting [8]. Also, the “Unstimulated GH release” value runs as follows: under setting [9], 557 ± 19 ng/mL; under setting [10], 378 ± 18 ng/mL.

Consider “Ser(Bzl)Lys(Ac)DTrp-p-phenylpiperidinamide”, for which the “Stimulated GH release (P + S)” value worked out at 571 ± 32 ng/mL under setting [1] and 399 ± 24 ng/mL under setting [2]. In addition, the “Unstimulated GH release” value was found to be 388 ± 41 ng/mL under setting [3] and 273 ± 39 ng/mL under setting [4].

In the case of “H[dW][dW]K-NH2 [1-His-DTrp-DTrp-Lys-NH2]”, the “Unstimulated Basal GH release” value (peptide 3 μg/ml) was determined as 1124 ± 37 ng/mL, the “Unstimulated Basal GH release” value (peptide 10 μg/ml) was 749 ± 10 ng/mL and the “Unstimulated Basal GH release” value (peptide 30 μg/ml) was determined as 615 ± 41 ng/mL.

With “αAib-DTrp-DAla-cyclohexylAla-NH2 [4-αAib-DTrp-DAla-cyclohexylAla-NH2]”, the “Unstimulated Basal GH release” value (peptide 1 μg/ml) turned out to be 1086 ± 52 ng/mL, the “Unstimulated Basal GH release” value (peptide 3 μg/ml) was 1103 ± 18 ng/mL, the “Unstimulated Basal GH release” value (peptide 10 μg/ml) amounted to 994 ± 22 ng/mL and the “Unstimulated Basal GH release” value (peptide 30 μg/ml) came out at 704 ± 115 ng/mL.

Consider “[dK]Y[dW][dW]F-NH2 [8-DLys-Tyr-DTrp-DTrp-Phe-NH2]”, for which the “Unstimulated Basal GH release” value runs as follows: (peptide 1 μg/ml) 1451 ± 19 ng/mL; (peptide 3 μg/ml) 1175 ± 77 ng/mL; (peptide 10 μg/ml) 1129 ± 6 ng/mL; (peptide 30 μg/ml) 744 ± 44 ng/mL.

As for `CC(C)(N)C(=O)N[C@H](COCc1ccccc1)C(=O)N1CCN(c2ccccc2)CC1` [αAibDSer(BZL)-N′-phenyl-N-piperazinamide], the “Stimulated GH release (P + S)” value under setting [1] was 878 ± 30 ng/mL and the “Stimulated GH release (P + S)” value under setting [2] came out at 510 ± 15 ng/mL. In addition, the “Unstimulated GH release” value came out at 777 ± 34 ng/mL under setting [3] and 499 ± 18 ng/mL under setting [4].

“DPal-Trp-DPhe-Phe-Met-NH2 [14-DPal-Trp-DPhe-Phe-Met-NH2]”: the “Unstimulated Basal GH release” value was determined as 1105 ± 18 ng/mL (peptide 3 μg/ml), 891 ± 4 ng/mL (peptide 10 μg/ml) and 567 ± 24 ng/mL (peptide 30 μg/ml).
